Nine molecules from ChEMBL document CHEMBL1201862, “PubChem BioAssay data set” (2004) can be followed below.

Among the test systems are CCRF-CEM; SK-OV-3; IGROV-1; UO-31; SR; LOX IMVI; DLD-1; COLO 205; Malme-3M; SF-268; 786-0; HT-29; SNB-19; DMS-273; NCI-H226; NCI/ADR-RES; MCF7; DU-145; MDA-MB-231.
Test in all cases: NCI tumour cell line growth inhibition, 48 h

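The compound was tested at five concentrations on cells cultured in 96-well plates, with a 48-hour exposure period. GI50 marks 50% less growth.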 The source made the active and inactive calls. Cut-off read from the data, not from the text of the source: active = GI50 up to about 1.1 µM and inactive = higher.

As for `COc1ccc(N2C(=O)C(N3C(=O)C=CC3=O)C2C=O)cc1` (centres undefined), the GI50 with CCRF-CEM, in the assay with SK-OV-3, in the assay with IGROV-1, with UO-31, with SR and with LOX IMVI was > 100 µM (inactive) in each case. Further, the GI50 with DLD-1, with COLO 205, with Malme-3M, in the assay on SF-268, in the assay on 786-0 and in the assay with HT-29 was > 100 µM (inactive) each time. For the same molecule, the GI50 in the assay on SNB-19 and in the assay on DMS-273 was > 100 µM (inactive) each time.

Take `CCOC(=O)c1cnc2c(ccc3ncccc32)c1NCCCN(CC)CC`: the GI50 in the assay with CCRF-CEM is 38.4 µM (inactive); with SK-OV-3 it was > 100 µM (inactive); in the assay on IGROV-1 it was > 100 µM (inactive); with UO-31 it was 76.4 µM (inactive); in the assay on LOX IMVI it was 17.5 µM (inactive); in the assay on DLD-1 it was > 100 µM (inactive). In addition, the GI50 is 70.3 µM (inactive) in the assay on COLO 205; > 100 µM (inactive) in the assay with Malme-3M; 90.6 µM (inactive) in the assay with SF-268; 37.9 µM (inactive) in the assay with 786-0; > 100 µM (inactive) with NCI-H226; 39.1 µM (inactive) with HT-29. Also, the GI50 is 50.1 µM (inactive) with SNB-19 and 54.1 µM (inactive) in the assay with DMS-273.

On to `CCCC1C(=O)C(CC)Cc2c(OC)ccc(OC)c21` (centres undefined), for which the GI50 in the assay on CCRF-CEM, in the assay with SK-OV-3, with IGROV-1, in the assay with UO-31, with LOX IMVI and in the assay on DLD-1 was > 100 µM (inactive) each time. For the same molecule, the GI50 in the assay on COLO 205, with Malme-3M, in the assay on SF-268, in the assay on 786-0, with NCI-H226 and in the assay with HT-29 was > 100 µM (inactive) in each case. In addition, the GI50 in the assay with SNB-19 and in the assay on DMS-273 was > 100 µM (inactive) each time.

In the case of `O=C1C2C3C4C1C1C2[C@H](OCc2ccccc2)C3C1[C@H]4OCc1ccccc1` (some centres undefined), the GI50 in the assay with CCRF-CEM is > 100 µM (inactive); with SK-OV-3 it was > 100 µM (inactive); with NCI/ADR-RES, 19.7 µM (inactive); in the assay with IGROV-1 it was > 100 µM (inactive); in the assay on UO-31, 55.8 µM (inactive); in the assay with SR it was 19.1 µM (inactive). The GI50 in the assay on MCF7 is > 100 µM (inactive); in the assay on LOX IMVI it was 40.4 µM (inactive); in the assay with COLO 205, 28.9 µM (inactive); in the assay on Malme-3M it was 76 µM (inactive); in the assay with DU-145, > 100 µM (inactive); in the assay with SF-268 it was 60.5 µM (inactive). In addition, the GI50 was > 100 µM (inactive) in the assay with 786-0; 82 µM (inactive) in the assay with MDA-MB-231; 76.9 µM (inactive) in the assay on NCI-H226; 15.2 µM (inactive) with HT-29; 67.9 µM (inactive) in the assay with SNB-19.

On to `NC1CC2C3CCC2C1C3=O` (centres undefined), for which the GI50 in the assay with CCRF-CEM, with SK-OV-3, in the assay on NCI/ADR-RES, in the assay with IGROV-1, with UO-31 and in the assay with SR was > 100 µM (inactive) in each case. The GI50 in the assay with MCF7, in the assay on LOX IMVI, with COLO 205, with Malme-3M, in the assay on DU-145 and in the assay on SF-268 was > 100 µM (inactive) in each case. Moreover, the GI50 in the assay on 786-0, in the assay on MDA-MB-231, with NCI-H226, with HT-29 and in the assay with SNB-19 was > 100 µM (inactive) throughout.

Turning to `Fc1cccc2nc(-c3ccccc3)cc(OCc3ccccc3)c12`, the GI50 in the assay with CCRF-CEM, with SK-OV-3, in the assay on NCI/ADR-RES, in the assay with IGROV-1, in the assay on UO-31 and in the assay on SR was > 100 µM (inactive) throughout. Besides, the GI50 was 59.7 µM (inactive) in the assay on MCF7; > 100 µM (inactive) with LOX IMVI; > 100 µM (inactive) in the assay with COLO 205; > 100 µM (inactive) in the assay with Malme-3M; > 100 µM (inactive) in the assay on DU-145; > 100 µM (inactive) in the assay on SF-268. Moreover, the GI50 in the assay on 786-0, in the assay on MDA-MB-231, in the assay on NCI-H226, in the assay with HT-29 and in the assay with SNB-19 was > 100 µM (inactive) throughout.

For `COC(CN(C)C(=S)Nc1cccc2ccccc12)OC`, the GI50 in the assay with CCRF-CEM, in the assay with SK-OV-3, in the assay with NCI/ADR-RES, with IGROV-1, in the assay with UO-31 and in the assay on SR was > 10 µM (inactive) throughout. The GI50 in the assay on MCF7, with LOX IMVI, with COLO 205, in the assay with Malme-3M, in the assay on DU-145 and in the assay with SF-268 was > 10 µM (inactive) throughout. In addition, the GI50 in the assay on 786-0, with MDA-MB-231, with NCI-H226, with HT-29 and in the assay with SNB-19 was > 10 µM (inactive) throughout.

Regarding `COc1cc(-c2cc(=O)c3c(O)c(OC)c(OC)c(OC)c3o2)cc(OC)c1OC` [GARDENIN], the GI50 in the assay on CCRF-CEM is > 100 µM (inactive); in the assay with SK-OV-3, 5.45 µM (inactive); in the assay with NCI/ADR-RES, 7.29 µM (inactive); with IGROV-1, 68.4 µM (inactive); in the assay on UO-31 it was 7.36 µM (inactive); in the assay with SR, > 100 µM (inactive). The GI50 is > 100 µM (inactive) in the assay with MCF7; 6.31 µM (inactive) with LOX IMVI; > 100 µM (inactive) in the assay on COLO 205; > 100 µM (inactive) with Malme-3M; > 100 µM (inactive) in the assay on DU-145; 8.71 µM (inactive) in the assay on SF-268. Further, the GI50 in the assay on 786-0 was 3.72 µM (inactive); with MDA-MB-231, 2.91 µM (inactive); in the assay with NCI-H226, 13.7 µM (inactive); with HT-29 it was > 100 µM (inactive); in the assay with SNB-19, 10.7 µM (inactive).

`CC(C)=CCc1c2c(c3occ(-c4ccc(O)c(O)c4)c(=O)c3c1O)C=CC(C)(C)O2` [POMIFERIN]: the GI50 in the assay with CCRF-CEM was 0.723 µM (active); in the assay with SK-OV-3 it was 6.71 µM (inactive); in the assay with NCI/ADR-RES, 2.18 µM (inactive); in the assay on IGROV-1 it was 2.11 µM (inactive); in the assay with UO-31 it was 1.54 µM (inactive); in the assay with SR it was 0.204 µM (active). The GI50 was 1.34 µM (inactive) in the assay on MCF7; 2.19 µM (inactive) in the assay with LOX IMVI; 1.78 µM (inactive) with COLO 205; 1.14 µM (inactive) in the assay on Malme-3M; 3.47 µM (inactive) with DU-145; 1.87 µM (inactive) in the assay with SF-268. Further, the GI50 in the assay on 786-0 is 1.51 µM (inactive); in the assay on MDA-MB-231, 1.39 µM (inactive); with NCI-H226 it was 16.9 µM (inactive); with HT-29 it was 1.84 µM (inactive); in the assay with SNB-19, 1.96 µM (inactive).
